The source of these data is paper PMC6434189, “Peperomin E and its orally bioavailable analog induce oxidative stress-mediated apoptosis of acute myeloid leukemia progenitor cells by targeting thioredoxin reductase” (Redox Biology, 2019).

Structures are written as SMILES.

Data set [1] deals with KG-1a CD34+ cells. In words: KG-1a-Luc CD34+ xenograft in NOD/SCID mice, bioluminescence. Type of data set: in vivo. The procedure: Six-week-old female NOD-SCID mice (obtained from the model animal research center of Nanjing University, Nanjing, China) were acclimated for 1 week and housed in groups of five. All animal studies were conducted under the guidelines approved by the Animal Care and Use Committee of the Nanjing University of Chinese Medicine (Nanjing, China). The mice were sublethally irradiated with 2.7 Gy before transplantation.
KG-1a cells tagged with a luciferase reporter gene (KG-1a-Luc) were obtained from Cobioer biotechnology Inc. (Nanjing, Jiangsu, China) and cultured in 90% IMDM supplemented with 10% FBS, 0.05 mM 2-Mercaptoethanol, and 1 μg/mL Puromycin, and grown at 37 °C in a 5% CO2 humidified incubator. CD34 positive cells were enriched (following the 2.3 method) and injected via the tail vein in a final volume of 0.2 mL PBS with 0.5% FBS. For analyzing the luciferase signal, 5 × 10^6 cells KG-1a-Luc cells were used for each recipient animal. Seven days after transplantation, mice with KG-1a-Luc implants were subjected to bioluminescent analysis based on the luciferase signal. Briefly, mice received D-luciferin phosphate solution (100 mg/kg) intravenously 10 min prior to imaging. They were then anesthetized with isoflurane inhalation and imaged using a Xenogen IVIS scanner (PerkinElmer, Waltham, MA, USA). The next day, mice showing successful implantations were randomly divided into the control, DMAPE low dose, DMAPE high dose, and Ara-C treatment groups (n = 5 in each group), which received daily i. g. saline buffer, DMAPE phosphate salt 25 mg/kg, DMAPE phosphate salt 50 mg/kg and Ara-C (50 mg/kg), respectively. The growth of KG-1a-Luc cells was monitored every week by their luciferase signal. Five weeks after the implantation, all mice were sacrificed and their livers, kidneys, and bone marrow were excised for ex vivo bioluminescent imaging. The bioluminescent signal intensity was all quantified using the Living Image software (version 4.2, Carliper Life Science, Inc., Hopkinton, MA, USA) and is presented as photons/second/cm^2/sr (sr denotes steradian).

Details of data set [2]: method as in earlier work. The settings on record: within 24 h; cited from earlier work.
Data set [3] concerns the target T1, Sec residue in TrxR1 (Homo sapiens, UniProt Q16881).
T1 construct: purchased Abcam ab204206
T1 sequence (Q16881 1-499 isoform Q16881-5): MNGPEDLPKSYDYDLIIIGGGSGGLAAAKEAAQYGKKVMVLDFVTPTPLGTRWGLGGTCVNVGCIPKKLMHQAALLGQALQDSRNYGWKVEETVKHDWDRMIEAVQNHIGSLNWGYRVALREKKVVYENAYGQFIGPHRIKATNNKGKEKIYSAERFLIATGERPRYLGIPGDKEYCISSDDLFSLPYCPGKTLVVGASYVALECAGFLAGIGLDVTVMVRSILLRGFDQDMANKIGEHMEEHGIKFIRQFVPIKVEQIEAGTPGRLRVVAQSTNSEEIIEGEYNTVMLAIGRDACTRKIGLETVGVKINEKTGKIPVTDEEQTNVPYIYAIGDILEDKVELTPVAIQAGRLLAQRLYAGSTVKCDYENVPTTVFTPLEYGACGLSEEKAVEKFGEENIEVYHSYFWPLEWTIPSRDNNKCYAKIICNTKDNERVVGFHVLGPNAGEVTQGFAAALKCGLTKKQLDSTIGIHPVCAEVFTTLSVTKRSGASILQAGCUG
As to the kind of experiment: BIAM labeling assay. The note with it: pH 6.5; PepE 1, 5, 10 μM; DNCB 5 μM. It is filed as biochemical. As to the method:
To further assess whether the Sec residue in TrxR1 was the modified site of PepE. The BIAM labeling assay was performed according to previous report. Briefly, 100 μM BIAM stock solution in 100 mM Tris-HCl, 1 mM EDTA buffer (pH = 6.5) was freshly prepared before each test. The TrxR1 protein (1 μM) was incubated with different concentrations (1, 5, 10 μM) of PepE or 5 μM of DNCB (positive control) and DMSO (negative control) in 50 mM Tris-HCl, 1 mM EDTA buffer (pH = 7.5) and 400 μM NADPH at 37 °C. After incubation, 4 μL of the reaction mixture was withdrawn and added mixed with 20 μM of BIAM solution in 100 mM Tris-HCl, 1 mM EDTA assay buffer (pH = 6.5) for 30 min at 37 °C to allow selective alkylation of free Sec residues. The reaction was stopped by adding the IAA solution (final concentration 50 mM). The samples were then denatured in SDS buffer, boiled and subjected to SDS-PAGE and western-blotting on a 7.5% gel, and the separated proteins were transferred to nitrocellulose membrane. The enzymes labeled with BIAM were detected with HRP-conjugated streptavidin and enhanced chemiluminescence detection. The bands were analyzed using Gel-pro 32 software.

Take `COc1cc(C(c2cc(OC)c3c(c2)OCO3)[C@@H]2COC(=O)[C@H]2CN(C)CCO)cc2c1OCO2` [DMAPE, (2S,3S)-6-Methyl (hydroxyethyl) amino-2,6-dihydropeperomin E]: the “growth and metastasis of AML CD34+ cells in NOD/SCID mice” value in data set [1] (25 mg/kg/d) is given as “significantly suppressed”. In addition, the “luciferase signal in the bone marrow” value in data set [1] (50 mg/kg i.g. daily, week 5, ex vivo imaging) is given as “almost no luciferase signal was detected”. Further, the “overall luciferase signal in the liver and kidney, saline vs treated” value in data set [1] (50 mg/kg i.g. daily, week 5, P < 0.001 kidneys, P < 0.01 livers) is “significantly stronger in the saline-treated group”. The “luciferase signal intensities compared to the saline-treated mice” value in data set [1] (25 and 50 mg/kg i.g. daily, P < 0.05 at three weeks, P < 0.01 at five weeks) is listed as “significantly weaker”. For the same compound, the “stability in the cell cultural media (without cells)” value in data set [2] is listed as “stable”.
On to `C=C1C(=O)OC[C@H]1C(c1cc(OC)c2c(c1)OCO2)c1cc(OC)c2c(c1)OCO2` [PepE, Peperomin E], for which the “BIAM alkylation of Sec residue of TrxR1” value in data set [3] is recorded as “significantly block”.
